Reference: ChEMBL document CHEMBL4270599, “Synthesis of a 3'-C-ethynyl-β-d-ribofuranose purine nucleoside library: Discovery of C7-deazapurine analogs as potent antiproliferative nucleosides” (Eur J Med Chem, 2018)

Experiments:
Format in all cases: functional
HL-60(TB) [1] = experiment: Cytotoxicity against human HL-60(TB) cells after 48 hrs by SRB assay; conditions: HL-60, 48 h; for GI50: read-out: GI50; for TGI: read-out: TGI; for CC50: read-out: pLC50 (the source's name) (converted)
HOP-62 [2] = experiment: Cytotoxicity against human HOP62 cells after 48 hrs by SRB assay; conditions: HOP-62, 48 h; for GI50: read-out: GI50; for TGI: read-out: TGI
HCT-116 [3] = experiment: Cytotoxicity against human HCT116 cells after 48 hrs by SRB assay; conditions: HCT-116, 48 h; for GI50: read-out: GI50
PC-3 [4] = experiment: Cytotoxicity against human PC3 cells after 48 hrs by SRB assay; conditions: PC-3, 48 h; for GI50: read-out: GI50; for TGI: read-out: TGI
MCF7 = experiment: Cytotoxicity against human MCF7 cells after 48 hrs by SRB assay; conditions: MCF7, 48 h; for GI50: read-out: GI50; for CC50: read-out: LC50 (the source's name); for TGI: read-out: TGI
Hs-578T [5] = experiment: Cytotoxicity against human Hs 578T cells after 48 hrs by SRB assay; conditions: for GI50: read-out: GI50; for TGI: read-out: TGI; for CC50: read-out: pLC50 (the source's name) (converted)
T47D [6] = experiment: Cytotoxicity against human T47D cells after 48 hrs by SRB assay; conditions: for GI50: read-out: GI50
HL-60(TB) [7] = experiment: Growth inhibition of human HL-60(TB) cells assessed as cell growth at 10^-8 M incubated for 48 hrs by sulforhodamine B assay relative to control; conditions: HL-60, 48 h, read-out: Activity
HOP-62 [8] = experiment: Growth inhibition of human HOP62 cells assessed as cell growth at 10^-8 M incubated for 48 hrs by sulforhodamine B assay relative to control; conditions: HOP-62, 48 h, read-out: Activity
NCI-H226 = experiment: Growth inhibition of human NCI-H226 cells assessed as cell growth at 10^-8 M incubated for 48 hrs by sulforhodamine B assay relative to control; conditions: NCI-H226, 48 h, read-out: Activity
IGROV-1 = experiment: Growth inhibition of human IGROV1 cells assessed as cell growth at 10^-8 M incubated for 48 hrs by sulforhodamine B assay relative to control; conditions: IGROV-1, 48 h, read-out: Activity
OVCAR-4 = experiment: Growth inhibition of human OVCAR4 cells assessed as cell growth at 10^-8 M incubated for 48 hrs by sulforhodamine B assay relative to control; conditions: OVCAR-4, 48 h, read-out: Activity
OVCAR-8 = experiment: Growth inhibition of human OVCAR8 cells assessed as cell growth at 10^-8 M incubated for 48 hrs by sulforhodamine B assay relative to control; conditions: OVCAR-8, 48 h, read-out: Activity
A498 = experiment: Growth inhibition of human A498 cells assessed as cell growth at 10^-8 M incubated for 48 hrs by sulforhodamine B assay relative to control; conditions: A498, 48 h, read-out: Activity
BT-549 = experiment: Growth inhibition of human BT549 cells assessed as cell growth at 10^-8 M incubated for 48 hrs by sulforhodamine B assay relative to control; conditions: BT-549, 48 h, read-out: Activity
SF-295 = experiment: Growth inhibition of human SF295 cells assessed as cell growth at 10^-7 M incubated for 48 hrs by sulforhodamine B assay relative to control; conditions: SF-295, 48 h, read-out: Activity
MDA-MB-435 = experiment: Growth inhibition of human MDA-MB-435 cells assessed as cell growth at 10^-7 M incubated for 48 hrs by sulforhodamine B assay relative to control; conditions: MDA-MB-435, 48 h, read-out: Activity
RXF 393 = experiment: Growth inhibition of human RXF393 cells assessed as cell growth at 10^-7 M incubated for 48 hrs by sulforhodamine B assay relative to control; conditions: RXF 393, 48 h, read-out: Activity
T47D [9] = experiment: Growth inhibition of human T47D cells assessed as cell growth at 10^-7 M incubated for 48 hrs by sulforhodamine B assay relative to control; conditions: read-out: Activity
SK-MEL-28 = experiment: Growth inhibition of human SK-MEL-28 cells assessed as cell growth at 10^-6 M incubated for 48 hrs by sulforhodamine B assay relative to control; conditions: SK-MEL-28, 48 h, read-out: Activity
ACHN = experiment: Growth inhibition of human ACHN cells assessed as cell growth at 10^-6 M incubated for 48 hrs by sulforhodamine B assay relative to control; conditions: read-out: Activity
Hs-578T [10] = experiment: Growth inhibition of human Hs 578T cells assessed as cell growth at 10^-6 M incubated for 48 hrs by sulforhodamine B assay relative to control; conditions: read-out: Activity
K562 = experiment: Growth inhibition of human K562 cells assessed as cell growth at 10^-5 M incubated for 48 hrs by sulforhodamine B assay relative to control; conditions: K562, 48 h, read-out: Activity
HCT-116 [11] = experiment: Growth inhibition of human HCT116 cells assessed as cell growth at 10^-5 M incubated for 48 hrs by sulforhodamine B assay relative to control; conditions: HCT-116, 48 h, read-out: Activity
SNB-19 = experiment: Growth inhibition of human SNB19 cells assessed as cell growth at 10^-6 M incubated for 48 hrs by sulforhodamine B assay relative to control; conditions: SNB-19, 48 h, read-out: Activity
M14 = experiment: Growth inhibition of human M14 cells assessed as cell growth at 10^-5 M incubated for 48 hrs by sulforhodamine B assay relative to control; conditions: M14, 48 h, read-out: Activity
PC-3 [12] = experiment: Growth inhibition of human PC3 cells assessed as cell growth at 10^-4 M incubated for 48 hrs by sulforhodamine B assay relative to control; conditions: PC-3, 48 h, read-out: Activity
UACC-62 = experiment: Growth inhibition of human UACC62 cells assessed as cell growth at 10^-6 M incubated for 48 hrs by sulforhodamine B assay relative to control; conditions: UACC-62, 48 h, read-out: Activity
[13] = read-out: pLC50 (the source's name) (converted)
[14] = read-out: LC50 (the source's name)

C#C[C@@]1(O)[C@@H](CO)O[C@@H](n2cc(Cl)c3c(N)ncnc32)[C@@H]1O
GI50 (HL-60(TB) [1]): 34.1 to 84 nM
TGI (HL-60(TB) [1]): 197 to 317 nM
CC50 (HL-60(TB) [1]): > 100000 nM
GI50 (HOP-62 [2]): 216 to 299 nM
TGI (HOP-62 [2]): 1160 to 3350 nM
CC50 (HOP-62 [2]; [13]): > 100000 nM
GI50 (HCT-116 [3]): 18.5 to 22.1 nM
TGI (HCT-116 [3]; read-out: TGI): > 100000 nM
CC50 (HCT-116 [3]; [13]): > 100000 nM
TGI (HCT-116 [3]; read-out: pTGI (converted)): > 100000 nM
GI50 (PC-3 [4]): 173 to 211 nM
CC50 (PC-3 [4]; [14]): > 100000 nM
TGI (PC-3 [4]): 3520 to 4540 nM
GI50 (MCF7): 21.8 to 31.9 nM
CC50 (MCF7): 5320 to 7110 nM
TGI (MCF7): 1040 to 1160 nM
GI50 (Hs-578T [5]): 463 to 2480 nM
TGI (Hs-578T [5]): 7010 to 100000 nM
CC50 (Hs-578T [5]): > 100000 nM
GI50 (T47D [6]): 33.6 to 98 nM
CC50 (T47D [6]; [14]): > 100000 nM
TGI (T47D [6]; read-out: TGI): 428 to 559 nM
growth at 0.01 µM (HL-60(TB) [7]): 83 to 85%
growth at 0.01 µM (HOP-62 [8]): 88 to 90%
growth at 0.01 µM (NCI-H226): 99 to 108%
growth at 0.01 µM (IGROV-1): 91 to 94%
growth at 0.01 µM (OVCAR-4): 89 to 90%
growth at 0.01 µM (OVCAR-8): 50 to 62%
growth at 0.01 µM (A498): 103 to 107%
growth at 0.01 µM (BT-549): 88 to 95%
growth at 0.1 µM (SF-295): 66 to 77%
growth at 0.1 µM (MDA-MB-435): 60 to 69%
growth at 0.1 µM (RXF 393): 105 to 110%
growth at 0.1 µM (T47D [9]): 31 to 50%
growth at 1 µM (SK-MEL-28): 32 to 43%
growth at 1 µM (ACHN): 7%
growth at 1 µM (Hs-578T [10]): 25 to 77%
growth at 10 µM (K562): 5 to 7%
growth at 10 µM (HCT-116 [11]): 4%

C#C[C@@]1(O)[C@@H](CO)O[C@@H](n2cc(Br)c3c(N)ncnc32)[C@@H]1O
GI50 (HL-60(TB) [1]): 21.8 to 71.6 nM
TGI (HL-60(TB) [1]): 75.7 to 313 nM
CC50 (HL-60(TB) [1]): 5250 nM
GI50 (HOP-62 [2]): 211 to 427 nM
CC50 (HOP-62 [2]; [14]): > 100000 nM
TGI (HOP-62 [2]): 4760 to 100000 nM
GI50 (HCT-116 [3]): 25.8 to 29.2 nM
CC50 (HCT-116 [3]; [14]): > 100000 nM
TGI (HCT-116 [3]; read-out: TGI): > 100000 nM
TGI (HCT-116 [3]; read-out: pTGI (converted)): > 100000 nM
GI50 (PC-3 [4]): 47.7 to 167 nM
TGI (PC-3 [4]): 8700 to 100000 nM
CC50 (PC-3 [4]; [13]): > 100000 nM
GI50 (MCF7): 16 to 30.7 nM
CC50 (MCF7): > 100000 nM
TGI (MCF7): 1190 to 1810 nM
GI50 (Hs-578T [5]): 307 to 1350 nM
TGI (Hs-578T [5]): 52400 to 100000 nM
CC50 (Hs-578T [5]): > 100000 nM
GI50 (T47D [6]): 17.3 to 43.2 nM
TGI (T47D [6]; read-out: TGI): 177 nM
CC50 (T47D [6]; [13]): > 100000 nM
TGI (T47D [6]; read-out: pTGI (converted)): 178 nM
growth at 0.01 µM (HL-60(TB) [7]): 81 to 82%
growth at 0.01 µM (HOP-62 [8]): 92 to 100%
growth at 0.01 µM (NCI-H226): 96 to 98%
growth at 0.01 µM (IGROV-1): 81 to 88%
growth at 0.01 µM (OVCAR-4): 96 to 100%
growth at 0.01 µM (OVCAR-8): 53 to 76%
growth at 0.01 µM (A498): 95 to 97%
growth at 0.01 µM (BT-549): 89 to 103%
growth at 0.1 µM (SF-295): 60 to 78%
growth at 0.1 µM (MDA-MB-435): 51 to 70%
growth at 0.1 µM (RXF 393): 81 to 103%
growth at 0.1 µM (T47D [9]): 5 to 32%
growth at 1 µM (SNB-19): 6%
growth at 1 µM (SK-MEL-28): 61 to 68%
growth at 1 µM (ACHN): 8%
growth at 1 µM (Hs-578T [10]): 6 to 57%
growth at 10 µM (K562): 6 to 7%
growth at 10 µM (HCT-116 [11]): 3 to 5%
growth at 10 µM (M14): 6 to 11%
growth at 100 µM (PC-3 [12]): -5%
growth at 1 µM (UACC-62): 21 to 23%
